Assay [1] deals with T1, CCK receptor (pancreas) (Canis lupus familiaris, UniProt Q5D0K2).
T1 construct: the suspension was used as a receptor source; from tissue; host or cells: dog pancreas membranes
T1 sequence (Q5D0K2 1-428): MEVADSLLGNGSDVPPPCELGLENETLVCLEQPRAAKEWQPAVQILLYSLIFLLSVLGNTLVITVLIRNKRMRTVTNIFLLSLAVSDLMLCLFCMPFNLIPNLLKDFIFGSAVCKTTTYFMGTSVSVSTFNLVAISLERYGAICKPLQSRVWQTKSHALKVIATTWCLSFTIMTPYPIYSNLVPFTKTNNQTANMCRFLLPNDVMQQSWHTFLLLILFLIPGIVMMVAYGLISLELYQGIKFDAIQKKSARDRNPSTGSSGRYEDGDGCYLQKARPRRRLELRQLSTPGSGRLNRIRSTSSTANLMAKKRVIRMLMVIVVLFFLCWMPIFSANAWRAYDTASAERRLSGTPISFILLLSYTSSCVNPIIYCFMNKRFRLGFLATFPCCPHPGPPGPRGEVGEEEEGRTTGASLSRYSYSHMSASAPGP
The assay can be described thus: CCK receptor-binding, pancreas (inhibition of 125I-CCK-8 binding). Also on record: species or system male mongrel adult dog. On the procedure:
The entire pancreas of a male mongrel adult dog was extracted and the fat tissues thereof were removed. The residual portion was homogenized in 50 mM Tris hydrochloride (pH 7.5) (Blinkman.cndot.Polytron PT20). After the filtration with nylon cloth (120 mesh) and subsequent centrifugation (50,000×g, 12 minutes), the obtained sediment was homogenized in a Tris buffer solution in the same manner as mentioned above and the homogenate was centrifuged. The obtained sediment was suspended in a buffer solution for binding assay (5 mM magnesium chloride, 5 mM dithiothreitol, 2 mg/ml bovine serum albumin, 0.1 mg/ml bacitracin, and 50 mM Tris hydrochloride, pH 7.2) containing 0.14 mg/ml trypsin-inhibitor (soy bean), and the suspension was used as a receptor source.

Assay [2] addresses T2, CCK receptor (brain).
T2 construct: brain; from tissue
The assay can be described thus: CCK receptor-binding, brain (inhibition of 125I-CCK-8 binding).

[3] abbreviates: dog pancreas membranes, 125I-CCK-8, 20° C., 30 minutes, pH 7.2, read-out: CCK binding, IC50, pancreas.

Read-outs that look alike come from different tables or passages of the source.

For orientation: IC50 means the concentration at which inhibition is half-maximal.

T2 sequence (P32239 whole entry): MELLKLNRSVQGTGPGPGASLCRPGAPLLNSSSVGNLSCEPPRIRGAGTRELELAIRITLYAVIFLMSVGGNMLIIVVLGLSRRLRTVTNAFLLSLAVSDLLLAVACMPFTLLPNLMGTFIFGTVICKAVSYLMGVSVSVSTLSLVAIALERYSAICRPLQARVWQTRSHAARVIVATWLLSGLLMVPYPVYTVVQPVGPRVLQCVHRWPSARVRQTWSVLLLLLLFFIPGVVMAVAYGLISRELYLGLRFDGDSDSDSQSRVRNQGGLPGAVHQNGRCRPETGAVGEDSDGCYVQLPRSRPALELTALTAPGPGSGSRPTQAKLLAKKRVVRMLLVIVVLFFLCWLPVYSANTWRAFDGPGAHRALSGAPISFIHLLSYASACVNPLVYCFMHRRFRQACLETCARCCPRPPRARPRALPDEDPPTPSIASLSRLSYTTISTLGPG

Regarding “CCK-8: CCK-8 which consists of 8 amino acids at the C terminus (of cholecystokinin); control compound [reference compound]”, the IC50 in assay [1] (setting [3]) was 0.4 nM.

For the molecule `CCc1cc2c(s1)-n1c(C)nnc1C(NC(=O)Nc1cccc(C)c1)N=C2c1ccccc1Cl` (stereo not drawn) [Compound B, 4-(2-chlorophenyl)-2-ethyl-9-methyl-6-(3-(3-methylphenyl)ureido)-6H-thieno[3,2-f][1,2,4]-triazolo[4,3-a][1,4]diazepine], the half-inhibitory concentration (IC50) turned out to be 10 nM in assay [2] and 1.2 nM in assay [1]. On to CCK-4 [reference compound], for which the 50% inhibitory concentration (IC50) in assay [1] (setting [3]) is 800 nM. For `CCc1cc2c(s1)N(C)C(=O)C(NC(=O)Nc1cccc(C)c1)N=C2c1ccccc1Cl` (stereo not drawn) [Compound A, 4-(2-chlorophenyl)-2-ethyl-8-methyl-6-(3-(3-methylphenyl)ureido)-8H-6,7-dihydro-thieno[3,2-f]-[1,4]diazepin-7-one], the IC50 in assay [2] came out at 31 nM; in assay [1], 11 nM.

The values above are taken from US5439905A, “Thienodiazepine compounds and their use” (Yoshitomi Pharmaceutical Industries, Ltd., priority 1993, dated 1995).
